test system: Plasmodium falciparum; experiment: GSK_TCMDC: Inhibition of Plasmodium falciparum 3D7 in whole erythrocytes, using parasite LDH activity as an index of growth.; assay type: functional, organism-based; details: Plasmodium falciparum, 3D7

Q: For `CC(C)C[C@H](NC(=O)OC(C)(C)C)C(=O)Nc1ccc(Cc2ccc(NC(=O)[C@H](CC(C)C)NC(=O)OC(C)(C)C)cc2)cc1`, which XC50 is on record?
A: The XC50 was 761 nM.

Q: For `Cn1nccc1C(=O)NCCNCc1cccc(-c2csc(-c3nc4ccccc4[nH]3)c2)c1`, which XC50 is on record?
A: The XC50 was 840 nM.

Q: For `Cc1cc(N[C@@H](Cc2ccccc2)C(=O)NC2CCCC2)nc(NCCCOC(C)C)n1`, which XC50 is on record?
A: The XC50 was 1480 nM.

Q: For `Cc1cc(C(=O)CN2C(=O)NC3(CCCc4ccccc43)C2=O)c(C)n1Cc1ccc(F)cc1` (centres undefined), which XC50 is on record?
A: The XC50 was 970 nM.

Q: How did the XC50 turn out when `COc1ccc(CC(C)NCC(O)c2cccc(Cl)c2)cc1C` (centres undefined) was run?
A: The XC50 was 902 nM.

Q: `O=C(Nc1cccc(-c2cccc(-c3nc4cc(F)ccc4[nH]3)c2)c1)c1c[nH]cn1` was tested. Which XC50 did it give?
A: Its XC50 is 459 nM.

Q: How did the XC50 turn out when `COc1ccc2nccc([C@@H](O)CN3CCC(NC(=O)Cc4ccc(Br)c5ccccc45)CC3)c2c1` was run?
A: Its XC50 is 820 nM.

Q: For `O=C(Nc1ccc(Cl)cc1Cl)NC1CCN(CCCCCNC(=O)C2CC2c2ccc(Cl)c(Cl)c2)CC1` (centres undefined), which XC50 is on record?
A: Its XC50 is 367 nM.

Q: With `CCN(CC)CCN(Cc1ccc(-c2ccc(Cl)cc2)cc1)C(=O)Cn1cc(CN(C)C)c(=O)nc1SCc1ccc(F)cc1` as the compound, how does the XC50 read?
A: The XC50 was 748 nM.

Q: With `O=C(NCCc1ccc(Cl)c(Cl)c1)[C@@H]1CCCN1C(=O)c1ccc(O)c(-c2cccc(C(F)(F)F)c2)c1` as the compound, how does the XC50 read?
A: Its XC50 is 825 nM.

Q: For `Clc1ccc(-c2cc3c(NCc4ccncc4)nccc3s2)cc1`, which XC50 is on record?
A: The XC50 was 852 nM.

Q: `CC(=O)Nc1ccc(OCCN(Cc2ccccc2OC(F)(F)F)c2ccc(C(F)(F)F)c(C#N)c2)c(Cl)c1` was tested. Which XC50 did it give?
A: The XC50 was 456 nM.

Q: Which XC50 does the source give for `C=Cc1cc(NC(=O)N2CCc3cc(OC)c(C(F)(F)F)cc32)cc(-c2cccnc2)c1` here?
A: The XC50 was 702 nM.

Q: With `O=[N+]([O-])c1ccc(C(O)P(=O)(c2ccccc2)c2ccccc2)cc1` (centres undefined) as the compound, how does the XC50 read?
A: Its XC50 is 341 nM.

Q: With `N#Cc1cccc(Nc2ncc3c(-c4cccc(NC(=O)Cc5cccc(Cl)c5)c4)c[nH]c3n2)c1` as the compound, how does the XC50 read?
A: The XC50 was 423 nM.

Q: Which XC50 does the source give for `CCOc1ccc(C=CC(=O)Nc2ccc3nc(N4CCN(C)CC4)cc(C)c3c2)cc1OC` here?
A: The XC50 was 398 nM.

Q: `NC1CCN(Cc2ccc(-c3ccc(-c4nc5cc(F)ccc5[nH]4)cc3)cc2)C1` (centres undefined) was tested. Which XC50 did it give?
A: Its XC50 is 184 nM.

Q: With `CCCCCCCOc1ccc(NC(=O)Nc2ccc(Cn3ncc(N4CCCNCC4)c(Cl)c3=O)cc2)cc1` as the compound, how does the XC50 read?
A: Its XC50 is 923 nM.

Q: For `CN1CCC(NCc2ccc(-c3cccc(-c4nc5ccccc5[nH]4)c3)cc2)CC1`, which XC50 is on record?
A: The XC50 was 126 nM.

Q: `CC(=O)Oc1c(C2CCN(CCCCNC(=O)c3ccc(NC(=O)c4ccc(Cl)cc4)cc3)CC2)ccc2ccccc12` was tested. Which XC50 did it give?
A: Its XC50 is 881 nM.

Q: With `C=CCOC(=O)N1CCC(CNCc2cccc(-c3ccc(-c4nc5cccc(C)c5[nH]4)cc3)c2)C1` (centres undefined) as the compound, how does the XC50 read?
A: The XC50 was 251 nM.

Q: `O=C(Nc1ccc(Cn2ncc(N3CCCNCC3)c(Cl)c2=O)cc1)Nc1ccc(OCc2ccccc2)cc1` was tested. Which XC50 did it give?
A: Its XC50 is 822 nM.

Q: With `Cc1cc(N(C)C2CCN(CC3CCCCC3)C2)nc(Nc2ccc(Br)cc2)n1` (centres undefined) as the compound, how does the XC50 read?
A: The XC50 was 703 nM.

Q: How did the XC50 turn out when `CCOc1cc(-c2nnc3[nH]c(=O)n(C)c(=O)c3n2)ccc1OC(C)C` was run?
A: Its XC50 is 400 nM.

Q: With `CN(C)c1ccc(CN2CCCCC(NC(=O)c3cc(-c4ccccc4Cl)cs3)C2)cc1` (centres undefined) as the compound, how does the XC50 read?
A: The XC50 was 1060 nM.

Q: With `O=C(/C=C/c1ccc(Cl)c(Cl)c1)NCCCCCN1CCC(NC(=O)Nc2ccc(Oc3ccccc3)cc2)C1` (centres undefined) as the compound, how does the XC50 read?
A: The XC50 was 594 nM.

Q: For `COc1cc(CCON2C(N)=NC(N)=NC2(C)C)cc(OC)c1OC`, which XC50 is on record?
A: The XC50 was 49.3 nM.

Q: How did the XC50 turn out when `CCCC(CNCc1cccc(C)c1)CNc1cc(=O)c2ccccc2[nH]1` (centres undefined) was run?
A: Its XC50 is 631 nM.

Q: With `O=C(c1ccc2ccccc2n1)N1CCCc2cc(Br)ccc21` as the compound, how does the XC50 read?
A: Its XC50 is 858 nM.

Q: Which XC50 does the source give for `CC1(C)N=C(N)N=C(Nc2ccc(F)c(F)c2)N1` here?
A: The XC50 was 52.5 nM.

Q: `Clc1ccc(CNc2nc(NCCc3c[nH]cn3)nc(N3CCCC4CCCCC43)n2)cc1` (centres undefined) was tested. Which XC50 did it give?
A: The XC50 was 591 nM.

Q: For `O=c1c2ccc(F)cc2sn1-c1ccc(Cl)cc1`, which XC50 is on record?
A: Its XC50 is 1150 nM.

Q: How did the XC50 turn out when `COc1ccc2c(c1)Sc1ccccc1C(N1CCN(CCO)CC1)C2` (centres undefined) was run?
A: Its XC50 is 1390 nM.

Q: For `O=C(N[C@H]1CCN(CCc2ccc(O[C@H]3CCNC3)c(Cl)c2)C1)c1ccc(Cl)c(Cl)c1`, which XC50 is on record?
A: Its XC50 is 890 nM.

Q: `CCCCCCCCc1c(C)nc(C)c(I)c1O` was tested. Which XC50 did it give?
A: The XC50 was 737 nM.

Q: Which XC50 does the source give for `COc1ccc2ncc(F)c(CCN3CC(O)C(CNCc4ccc5oc(=O)ccc5c4)C3)c2n1` (centres undefined) here?
A: Its XC50 is 949 nM.

Q: `Cc1cccc2nc(-c3cccc(-c4ccc(NC(=O)Nc5ccc(F)c(F)c5F)cc4)c3)[nH]c12` was tested. Which XC50 did it give?
A: The XC50 was 168 nM.

Q: `COc1cccc(NC(=O)Cn2c(C)c(C(=O)C(F)(F)F)c3ccccc32)c1` was tested. Which XC50 did it give?
A: The XC50 was 827 nM.

Q: Which XC50 does the source give for `O=C(/C=C/c1ccc(-c2nc3ccc(Cl)cc3[nH]2)cc1)NCc1cccc(F)c1` here?
A: Its XC50 is 640 nM.

Q: With `Fc1ccc2[nH]c(-c3ccc(-c4ccc(CNCc5ccccc5)cc4)cc3)nc2c1` as the compound, how does the XC50 read?
A: Its XC50 is 284 nM.

Q: `Cc1cc(F)ccc1N(c1nc(-c2cc(Cl)ccc2Cl)cs1)C1CCNC1` (centres undefined) was tested. Which XC50 did it give?
A: The XC50 was 1010 nM.

Q: Which XC50 does the source give for `COc1ccccc1C(=O)Nc1ccc(Nc2nc(C)cc(N3CCOCC3)n2)cc1` here?
A: Its XC50 is 528 nM.

Q: For `COc1ccc2nccc([C@@H](O)CN3CCC(NCc4cc5cccc6c5n(c4=O)CCC6)CC3)c2c1`, which XC50 is on record?
A: The XC50 was 861 nM.

Q: With `Nc1ncc(-c2cn[nH]c2)cc1-c1nc2ccc(F)cc2[nH]1` as the compound, how does the XC50 read?
A: Its XC50 is 729 nM.

Q: For `c1ccc(-c2n[nH]cc2Nc2ccnc3ccccc23)nc1`, which XC50 is on record?
A: Its XC50 is 819 nM.

Q: With `Cn1cnc2c(Nc3ccncc3)nc(-c3ccc4c(c3)OCO4)nc21` as the compound, how does the XC50 read?
A: The XC50 was 1110 nM.

Q: `CSc1ccc(CN2CCC(NC(=O)c3ccc(-c4cccc(C(F)(F)F)c4)s3)CC2)cc1` was tested. Which XC50 did it give?
A: Its XC50 is 1220 nM.

Q: `Cc1noc(C)c1-c1ccc2c(Nc3ccccc3C(C)(C)C)c(C(=O)NCc3ccccc3)cnc2c1` was tested. Which XC50 did it give?
A: The XC50 was 762 nM.

Q: How did the XC50 turn out when `Cc1[nH]c(C)c(-c2ccc(-c3ccc(OC(F)(F)F)cc3)nc2)c(=O)c1Br` was run?
A: Its XC50 is 249 nM.

Q: How did the XC50 turn out when `CC(C)(C)c1ccc(NC(=O)c2ccc(CN3CCCN(Cc4cccc(F)c4)CC3)cc2)cc1` was run?
A: The XC50 was 1120 nM.

Q: Which XC50 does the source give for `CCCCC/C=C/C(=O)NC1CCC(CN2CCC(c3c[nH]c4ccccc34)CC2)CC1` (centres undefined) here?
A: Its XC50 is 982 nM.

Q: How did the XC50 turn out when `CCCCCCc1cc2cc(-c3nc(-c4ccc(OC)cc4)cs3)c(=O)oc2cc1O` was run?
A: The XC50 was 816 nM.

Q: Which XC50 does the source give for `O=S1(=O)NC2(CCN(CCc3ccc(Cl)cc3)CC2)Nc2cc(F)cc(F)c21` here?
A: Its XC50 is 1460 nM.

Q: Which XC50 does the source give for `CC(C)Cc1ccc(N2CCN(CCCCNC(=O)c3ccc(NC(=O)c4cc(C(F)(F)F)cc(C(F)(F)F)c4)cc3)CC2)cc1` here?
A: Its XC50 is 179 nM.

Q: With `CS(=O)(=O)c1cccc(-c2cnc(N)c3cc(-c4ccc(F)cc4)ccc23)c1` as the compound, how does the XC50 read?
A: The XC50 was 903 nM.

Q: How did the XC50 turn out when `COc1ccc2nccc([C@@H](O)CN3CCC(NCc4nc5ccccc5[nH]4)CC3)c2c1` was run?
A: The XC50 was 1070 nM.

Q: Which XC50 does the source give for `CN1CCCC(CN2CCN(Cc3cccc(-c4cccc(-c5nc6ccccc6[nH]5)c4)c3)CC2)C1` (centres undefined) here?
A: Its XC50 is 139 nM.

Q: `CCOC(=O)c1c(-c2ccccc2)nc2c(sc3ccccc32)c1O` was tested. Which XC50 did it give?
A: Its XC50 is 375 nM.

Q: `N#Cc1ccc2c(c1)CCN(CCC1CCC(NC(=O)/C=C/c3c[nH]c4c(Br)cccc34)CC1)CC2` (centres undefined) was tested. Which XC50 did it give?
A: Its XC50 is 379 nM.

Q: For `CCOc1cc(CC)ccc1C1CCN(CCCCNC(=O)c2ccc(NC(=O)c3ccc(Cl)cc3)cc2)CC1`, which XC50 is on record?
A: The XC50 was 743 nM.

Q: For `O=C(Nc1cccc(CN2CCCN(Cc3ccc(O)cc3)CC2)c1)c1ccc(-c2ccccc2)cc1`, which XC50 is on record?
A: The XC50 was 342 nM.

Q: Which XC50 does the source give for `NC1=NC2(CCCCC2)N(OCCCCCCCCNc2nc(N)nc(N)n2)C(N)=N1` here?
A: The XC50 was 59.8 nM.

Q: How did the XC50 turn out when `CCc1cccc(-n2c(=O)c3cccnc3n2CC(=O)NCc2ccccc2Cl)c1` was run?
A: The XC50 was 741 nM.

Q: For `CC(C)(C)CNCC(C)(C)c1nc(-c2ccc(Cl)c(O)c2)c(-c2ccncc2)[nH]1`, which XC50 is on record?
A: Its XC50 is 601 nM.

Q: For `Cc1[nH]c2ccccc2c1C1CCN(CC2CCC(NC(=O)/C=C/c3ccc(Cl)c(Cl)c3)CC2)CC1` (centres undefined), which XC50 is on record?
A: The XC50 was 822 nM.

Q: Which XC50 does the source give for `CSc1ccc(CN2CCC(CNC(=O)c3cc(-c4ccccc4F)cs3)C2)cc1` (centres undefined) here?
A: The XC50 was 1140 nM.

Q: Which XC50 does the source give for `CC(=O)C1(c2ccccc2)CCN(CCC(NC(=O)c2cc(C(F)(F)F)cc(C(F)(F)F)c2)c2ccc(Cl)c(Cl)c2)CC1` (centres undefined) here?
A: Its XC50 is 1190 nM.

Q: For `Cc1cc(=NN=Cc2ccccc2F)c2cccc(C)c2[nH]1`, which XC50 is on record?
A: Its XC50 is 764 nM.

Q: How did the XC50 turn out when `Cc1[nH]c(C)c(-c2ccc(-c3ccccc3Cl)nc2)c(=O)c1Br` was run?
A: Its XC50 is 171 nM.

From ChEMBL document CHEMBL1157539, “Thousands of chemical starting points for antimalarial lead identification” (Nature, 2010)
